Experimental data from patent publication US4275072A, “2,6-Dichlorophenyl-substituted amino-imidazole derivatives and use as hypertensive agents” (priority 1979, dated 1981).

Assays:
[1] = tested on: anesthetized Sprague-Dawley rats; assay: blood pressure and pulse frequency in anesthetized Sprague-Dawley rats, i.v.; format: in vivo
Experimental: The test animals are first anesthetized with urethane. […] The test substance is injected into the femoral vein.

[2] = tested on: Okamoto-Aoki spontaneous hypertensive rats (SHR); assay: blood pressure in unanesthetized spontaneous hypertensive rats (SHR), peroral; format: in vivo; conditions: 100 mg/kg p.o.
Experimental: (§1) In a further test unanesthetized Okamoto-Aoki spontaneous hypertensive rats (SHR) are used. The test derivative is administered perorally by way of a tube into the stomach. The blood pressure is measured from the tail using an indirect bloodless method.

gastric ulcers = assay: anti-ulcer activity: gastric ulcers induced by anti-inflammatory agents (e.g., indomethacin); format: in vivo; conditions: i.p., ulcers counted after three hours, fasted female rats
[3] = preliminary tests of further pharmacological activities; conditions: in words
[4] = anti-hypertensive activity in mammals, overall observations; conditions: in words; for anti-hypertensive activity: in mammals
Experimental: The anti-hypertensive properties of the imidazole derivatives of the invention may be shown by using anesthetized Sprague-Dawley rats of normal weight. The test animals are first anesthetized with urethane. After this the femoral artery is connected by way of a polyethylene tube with a blood pressure transducer. The test substance is injected into the femoral vein. The blood pressure and the pulse frequency are registered with a recorder.
as §1

Sprague-Dawley male rats = assay: diuretic effect: urine volume in rats after intraperitoneal injection; format: in vivo; conditions: for Mean Cumulative Volume of Urine, 0-1 hours / Mean Cumulative Volume of Urine, 0-2 hours / Mean Cumulative Volume of Urine, 0-3 hours / Mean Cumulative Volume of Urine, 0-4 hours / Mean Cumulative Volume of Urine, 0-5 hours: 2 mg/kg intraperitoneally, 6 rats, 10 ml water by gastric tube; for Mean Cumulative Volume of Urine, 0-1 hours: saline control 1.1; for Mean Cumulative Volume of Urine, 0-2 hours: saline control 7.2; for Mean Cumulative Volume of Urine, 0-3 hours: saline control 11.4; for Mean Cumulative Volume of Urine, 0-4 hours / Mean Cumulative Volume of Urine, 0-5 hours: saline control 13.5; for diuretic activity: in words
Experimental: The diuretic effect of the intermediates may be studied by injecting the compounds intraperitoneally to adult Sprague-Dawley male rats after an overnight fast. Simultaneously, 10 ml of water is fed to each rat through a gastric tube.

[5] = in words; prior art; cited from earlier work
rats = assay: toxicity (LD50) in rats; format: in vivo; conditions: in words

Cc1cn(-c2c(Cl)cccc2Cl)c(N)n1 [compound I, 1-(2',6'-dichlorophenyl)-2-amino-4-methyl-imidazole]
Average reduction of blood pressure ([1]; 10 mg/kg i.v.): 25%
Average reduction of pulse frequency ([1]; 10 mg/kg i.v.): 20%
Average reduction of blood pressure ([1]; 3,3 mg/kg i.v.): 20%
Average reduction of blood pressure [2]: 35%
minimal effective dose (gastric ulcers; Rattus norvegicus, ip, 3 h, doses as small as, read-out: smallest dose effective in reducing the number of ulcers): 1 mg/kg
dose that prevents the formation of gastric ulcers (gastric ulcers): ~20 mg/kg
analgesic activity [3]: analgesic
anti-arrhythmic activity [3]: anti-arrhythmic activity
anti-convulsant activity [3]: anti-convulsant
anti-depressant activity [3]: anti-depressant
anti-inflammatory activity [3]: anti-inflammatory
anti-ulcer activity [3]: anti-ulcer
anti-hypertensive activity [4]: excellent anti-hypertensive activity
reduction of the blood pressure, character and duration [4]: smooth and of relatively long duration
temporary rise of the blood pressure at the beginning of the administration [4]: No temporary rise of the blood pressure is observed

CCOC(=O)Cc1cn(-c2c(Cl)cccc2Cl)c(N)n1 [Compound Ib, 4-[1-(2',6'-dichlorophenyl)-2-amino]-imidazoleacetic acid ethyl ester]
Mean Cumulative Volume of Urine, 0-1 hours (Sprague-Dawley male rats): 2.3 mL
Mean Cumulative Volume of Urine, 0-2 hours (Sprague-Dawley male rats): 10.9 mL
Mean Cumulative Volume of Urine, 0-3 hours (Sprague-Dawley male rats): 12.3 mL
Mean Cumulative Volume of Urine, 0-4 hours (Sprague-Dawley male rats): 14.5 mL
Mean Cumulative Volume of Urine, 0-5 hours (Sprague-Dawley male rats): 15.7 mL

Clc1cccc(Cl)c1N=C1NCCN1 [clonidine, 2-(2,6-dichloroanilino)-2-imidazoline]
temporary rise of the blood pressure at the beginning of administration [5]: temporary rise in blood pressure at the beginning of administration

CCOC(=O)Cc1c[nH]c(Nc2c(Cl)cccc2Cl)n1 [Compound IIb, 4-[2-(2',6'-dichloroanilino)]-imidazoleacetic acid ethyl ester]
Mean Cumulative Volume of Urine, 0-1 hours (Sprague-Dawley male rats): 3.4 mL
Mean Cumulative Volume of Urine, 0-2 hours (Sprague-Dawley male rats): 9.5 mL
Mean Cumulative Volume of Urine, 0-3 hours (Sprague-Dawley male rats): 13.4 mL
Mean Cumulative Volume of Urine, 0-4 hours (Sprague-Dawley male rats): 14.4 mL
Mean Cumulative Volume of Urine, 0-5 hours (Sprague-Dawley male rats): 14.4 mL

Cc1c[nH]c(Nc2c(Cl)cccc2Cl)n1 [compound II, 2-(2',6'-dichloroanilino)-4-methyl-imidazole]
Average reduction of blood pressure ([1]; 10 mg/kg i.v.): 25%
toxicity (rats): low toxicity
analgesic activity [3]: analgesic
anti-arrhythmic activity [3]: anti-arrhythmic activity
anti-convulsant activity [3]: anti-convulsant
anti-depressant activity [3]: anti-depressant
anti-inflammatory activity [3]: anti-inflammatory
anti-ulcer activity [3]: anti-ulcer
anti-hypertensive activity [4]: excellent anti-hypertensive activity
reduction of the blood pressure, character and duration [4]: smooth and of relatively long duration
temporary rise of the blood pressure at the beginning of the administration [4]: No temporary rise of the blood pressure is observed

Nc1nc(CC(=O)O)cn1-c1c(Cl)cccc1Cl [Compound Ia, 4-[1-(2',6'-dichlorophenyl)-2-amino]-imidazoleacetic acid]
Mean Cumulative Volume of Urine, 0-1 hours (Sprague-Dawley male rats): 2.6 mL
Mean Cumulative Volume of Urine, 0-2 hours (Sprague-Dawley male rats): 10.2 mL
Mean Cumulative Volume of Urine, 0-3 hours (Sprague-Dawley male rats): 13.9 mL
Mean Cumulative Volume of Urine, 0-4 hours (Sprague-Dawley male rats): 14.7 mL
Mean Cumulative Volume of Urine, 0-5 hours (Sprague-Dawley male rats): 16.4 mL
diuretic activity (Sprague-Dawley male rats): significant diuretic activity

O=C(O)Cc1c[nH]c(Nc2c(Cl)cccc2Cl)n1 [Compound IIa, 4-[2-(2',6'-dichloroanilino)]-imidazoleacetic acid]
Mean Cumulative Volume of Urine, 0-1 hours (Sprague-Dawley male rats): 1.3 mL
Mean Cumulative Volume of Urine, 0-2 hours (Sprague-Dawley male rats): 8.1 mL
Mean Cumulative Volume of Urine, 0-3 hours (Sprague-Dawley male rats): 12.9 mL
Mean Cumulative Volume of Urine, 0-4 hours (Sprague-Dawley male rats): 14.3 mL
Mean Cumulative Volume of Urine, 0-5 hours (Sprague-Dawley male rats): 14.9 mL
diuretic activity (Sprague-Dawley male rats): significant diuretic activity
